From US7445892B2, “Method of testing anticancer agent-sensitivity of tumor cells” (Eisai Co., Ltd., priority 2000, dated 2008)

Tested on: HCT116-C9
Assay: Gene expression analysis using DNA microarray (GeneChip Hu6800)
Format: cell-based, human
Details: HCT116-C9, 8 μM, 12 hours, compared with cells without drug; change of 1.8 times or more counted
Method: All cells were cultured in RPMI-1640 medium supplemented with 10% of fetal bovine serum, 100 units/ml of penicillin and 100 μg/ml of streptomycin at 37° C. under 5% CO2.
E7070, or ER-35748 or ER-68487 represented by the structural formula shown below was added to the media of an E7070-susceptible strain HCT116-C9 and an E7070-resistant strain HCT116-C9-C1 at a concentration of 8 μM and the cells were cultured. Then, cells were recovered after 0, 3, 6 and 12 hours. Further, the cells were also cultured for 12 hours without adding the drug and recovered.
Total RNA was extracted from these cells and subjected to the subsequent analyses. The RNA extracted from the cells cultured for 12 hours with the drug and the RNA from extracted the cells cultured for 12 hours without the drug were used for the gene expression analysis using a DNA microarray described in Example 2. HCT116-C9 was a substrain isolated from HCT116 derived from human colon cancer (American Type Culture Collection, Manassas, Va., U.S.A.), and HCT116-C9-C1 was an E7070-resistant substrain obtained by culturing this HCT116-C9 in the presence of E7070 with gradually increasing the E7070 concentration.
Total RNA was extracted from the recovered cells by using TRIZOL Reagent (Life Technologies Oriental) according to the attached operation manual.
Each RNA obtained in Example 1 was dissolved in 100 μl of sterilized water treated with diethyl pyrocarbonate (DEPC) and further purified by using RNeasy Column (QIAGEN), and double-stranded cDNA was synthesized by using SuperScript Choice System (Life Technologies Oriental) and a T7-d(T)24 primer.
First, to 10 μg of RNA, 5 μM T7-d(T)24 primer, 1×First strand buffer, 10 mM DTT, 500 μM dNTP mix and 20 units/μl of SuperScript II Reverse Transcriptase were added and the mixture was allowed to react at 42° C. for 1 hour to synthesize single-stranded DNA. Subsequently, to the DNA, 1×Second strand buffer, 200 μM dNTP mix, 67 U/ml of DNA ligase, 270 U/ml of DNA polymerase I and 13 U/ml of RNase H were added and the mixture was allowed to react at 16° C. for 2 hours to synthesize double-stranded cDNA. Further, to the cDNA, 67 U/ml of T4 DNA polymerase I was added and the mixture was allowed to react at 16° C. for 5 minutes and then 10 μl of 0.5 M EDTA was added to terminate the reaction.
The obtained cDNA was purified with phenol/chloroform, and a labeling reaction with biotinylated UTP and CTP was carried out by using RNA Transcript Labeling Kit (Enzo Diagnostics) according to the attached operation manual. The reaction product was purified with Rneasy Column and heated in 200 mM Tris/acetate buffer (pH 8.1), 150 mM magnesium acetate, 50 mM potassium acetate at 94° C. for 35 minutes to obtain fragment cRNA.
The fragmented cRNA was hybridized with GeneChip Hu6800 (Affymetrix) in 100 mM MES, 1 M sodium salt, 20 mM EDTA and 0.01% Tween 20 at 45° C. for 16 hours. After the hybridization, the GeneChip was washed and stained according to the protocol EukGE-WS2 attached to Affymetrix Fluidics Station. For the staining, streptavidin-phycoerythrin and biotinylated goat anti-streptavidin antibody were used. The stained GeneChip was scanned by using HP Argon Ion Laser Confocal Scanner (Hewlett Packard) to measure its fluorescence intensity. The fluorescence was measured at 570 nm by using an excitation light at 488 nm.
The quantitative data analyses were all conducted by using GeneChip Software (Affymetrix). To quantify RNA, an average of “differences [(Perfect match hybridization signal)−(Mismatch signal)]” was obtained for each probe family.
E7070, or ER-35748 or ER-68487 was added to a medium for HCT116-C9 at a concentration of 8 μM and culture was performed. The results of analysis of RNA extracted from the cells at 12 hours by using GeneChip were compared with the results of RNA analysis for HCT116-C9 cells obtained in the same manner except for not adding the drug. […]

N#Cc1ccc(S(=O)(=O)Nc2cccc3c(Cl)c[nH]c23)cc1 [ER-35748]
expression levels of the genes listed in Table 1: increased
expression levels of the genes listed in Table 2: decreased

N#Cc1ccc(S(=O)(=O)Nc2cccc3c(C#N)c[nH]c23)cc1 [ER-68487]
expression levels of the genes listed in Table 1: increased
expression levels of the genes listed in Table 2: decreased
